In PMC12467740, “Synthesis, Characterization, and Screening Anticancer—Antibiofilm Activities of Theophylline Derivatives Containing CF3/OCF3 Moiety” (Biology, 2025):

Legend:
Assay type in all cases: cell-based
Enterococcus faecalis = experiment: Well plate biofilm formation assay (crystal violet); settings: over the concentration range given per compound (Table 4)
Description: (§1) The well plate assay was utilized to test the effectiveness of compounds in inhibiting biofilms made by microorganisms. An amount of 100 μL of Brucella broth (Remel, Lenexa, KS, USA) containing 1% and 20% glucose (Biolife, Milan, Italy), were dispensed into the test wells. In the next step, 100 μL of compounds ranging from 0.244 to 1000 μg/mL were poured into the wells. […] Then, 0.5 McFarland standard in physiological saline from each microorganism strain were prepared and 20 μL of the prepared suspension was added to the wells. A column of the microplate containing 100 μL Brucella broth served as a negative control and another column of the microplate containing 100 μL Brucella with 20 μL of each microorganism added served as a growth control. As positive controls, ciprofloxacin was applied against bacterial strains at a concentration range of 0.03125-64 μg/mL, and fluconazole was used against Candida albicans at a concentration range of 0.3125-640 μg/mL. Plates were left to incubate at 36.5 °C for a day. The plates were emptied and then washed three times with 300 μL of deionized water. The wells were left to dry for half an hour. The next step was staining with 0.1% (w/v) violet dye ([…]), cleaning three times with deionized water, and drying at room temperature. The crystal violet adhering to the wall of the wells was dissolved with 95% ethanol, and the optical density was measured at 570 nm. The test was run two times, and the mean value was calculated. Biofilm preventing (%) = {(ODb - ODc)/ODb} × 100.

Escherichia coli = experiment: as above; settings: over the concentration range given per compound (Table 4)
Description: as §1

Staphylococcus aureus = experiment: as above; settings: over the concentration range given per compound (Table 4); 1c and 1e at 1000 µg/mL
Description: as §1

Pseudomonas aeruginosa = experiment: as above; settings: over the concentration range given per compound (Table 4)
Description: as §1

[1] = test system: Pseudomonas aeruginosa (ATCC 27853); experiment: Broth microdilution MIC; settings: ciprofloxacin 0.03125–64 µg/mL
Description: (§2) The antibacterial activities of the compounds were determined using the broth microdilution method, as per the advice of international standards. […] Standard bacterial strains Staphylococcus aureus (ATCC 29213), Enterococcus faecalis (ATCC 29212), Escherichia coli (ATCC 25922), Pseudomonas aeruginosa (ATCC 27853), and yeast Candida albicans (ATCC 10231), were previously stored at −80 °C then revived at room temperature. Microorganisms were inoculated using overnight broth cultures. Stock solutions of the samples studied at a concentration of 1000 µg/mL were prepared with dimethyl sulfoxide (DMSO). An amount of 100 µL of Mueller Hinton Broth (Liofilchem, Italy) were dispensed into all wells of 96-well microplates. […] Serial dilutions of 0.00048–1% DMSO were made into a column of the microplate to determine its antimicrobial activity. 0.5 McFarland standard in physiological saline from each microorganism strains were prepared and 20 µL of the prepared suspension was added to the wells. An amount of 100 µL Mueller Hinton Broth in a column of the microplate served as a negative control and another column of the microplate containing 100 µL of Mueller Hinton Broth with 20 µL of each microorganism added served as a growth control. As positive controls, ciprofloxacin was applied against bacterial strains at a concentration range of 0.03125–64 µg/mL, and fluconazole was used against Candida albicans at a concentration range of 0.3125–640 µg/mL. The plates were covered with parafilm, incubated at 36.5 °C in an aerobic environment for 24 h. After incubation, the optical density was measured at 620 nm. The first concentration without microbial growth was determined as MIC and experiments were repeated twice.

[2] = test system: Enterococcus faecalis (ATCC 29212); experiment: Broth microdilution MIC; settings: ciprofloxacin 0.03125–64 µg/mL
Description: as §2

[3] = test system: Staphylococcus aureus (ATCC 29213); experiment: Broth microdilution MIC; settings: ciprofloxacin 0.03125–64 µg/mL
Description: as §2

[4] = test system: Escherichia coli (ATCC 25922); experiment: Broth microdilution MIC; settings: ciprofloxacin 0.03125–64 µg/mL
Description: as §2

Candida albicans = experiment: Well plate biofilm formation assay (crystal violet); settings: over the concentration range given per compound (Table 4)
Description: as §1

[5] = test system: Candida albicans (ATCC 10231); experiment: Broth microdilution MIC; settings: fluconazole 0.3125–640 µg/mL
Description: as §2

O=C(O)c1cn(C2CC2)c2cc(N3CCNCC3)c(F)cc2c1=O [Ciprofloxacin, ciprofloxacin, reference compound]
Antibiofilm activity Enterococcus faecalis (Enterococcus faecalis): 18.11%
Antibiofilm activity Escherichia coli (Escherichia coli): 36.67%
Antibiofilm activity Staphylococcus aureus (Staphylococcus aureus): 50.56%
Antibiofilm activity Pseudomonas aeruginosa (Pseudomonas aeruginosa): 35.79%
Microbial growth in positive control wells [1]: no microbial growth was observed
Microbial growth in positive control wells [2]: no microbial growth was observed
Microbial growth in positive control wells [3]: no microbial growth was observed
Microbial growth in positive control wells [4]: no microbial growth was observed

OC(Cn1cncn1)(Cn1cncn1)c1ccc(F)cc1F [Fluconazole, fluconazole, reference compound]
Antibiofilm activity Candida albicans (Candida albicans): 29.10%
Microbial growth in positive control wells [5]: no microbial growth was observed
